# Test results from patent US20240216344A1, “THIAZOLIDINEDIONE ANALOGS FOR THE TREATMENT OF NAFLD AND METABOLIC DISEASES” (Cirius Therapeutics, Inc., priority 2019, published 2024).
# Where two headings read alike, the source gives them in different places.
# What was measured:
# [1] = Exposure of parent and metabolite; bioavailability of potassium salt vs free acid; settings: in vivo
# MPC = molecular target: T1, MPC (Homo sapiens, UniProt O95563+Q9Y5U8); assay: Relative binding affinity for the MPC (FIG. 8)
# T1 sequence (Q9Y5U8 1-109): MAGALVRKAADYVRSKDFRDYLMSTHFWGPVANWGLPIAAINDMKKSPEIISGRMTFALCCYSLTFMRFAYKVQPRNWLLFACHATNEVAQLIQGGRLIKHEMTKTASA
# T1 sequence (O95563 1-127): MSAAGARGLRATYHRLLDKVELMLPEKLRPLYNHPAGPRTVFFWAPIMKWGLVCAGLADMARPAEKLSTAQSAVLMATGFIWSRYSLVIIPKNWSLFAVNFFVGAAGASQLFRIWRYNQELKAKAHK
# PPARγ = molecular target: T2, PPARγ (Homo sapiens, UniProt P37231); assay: Relative binding affinity for PPARγ (FIG. 7)
# T2 sequence (P37231 1-505): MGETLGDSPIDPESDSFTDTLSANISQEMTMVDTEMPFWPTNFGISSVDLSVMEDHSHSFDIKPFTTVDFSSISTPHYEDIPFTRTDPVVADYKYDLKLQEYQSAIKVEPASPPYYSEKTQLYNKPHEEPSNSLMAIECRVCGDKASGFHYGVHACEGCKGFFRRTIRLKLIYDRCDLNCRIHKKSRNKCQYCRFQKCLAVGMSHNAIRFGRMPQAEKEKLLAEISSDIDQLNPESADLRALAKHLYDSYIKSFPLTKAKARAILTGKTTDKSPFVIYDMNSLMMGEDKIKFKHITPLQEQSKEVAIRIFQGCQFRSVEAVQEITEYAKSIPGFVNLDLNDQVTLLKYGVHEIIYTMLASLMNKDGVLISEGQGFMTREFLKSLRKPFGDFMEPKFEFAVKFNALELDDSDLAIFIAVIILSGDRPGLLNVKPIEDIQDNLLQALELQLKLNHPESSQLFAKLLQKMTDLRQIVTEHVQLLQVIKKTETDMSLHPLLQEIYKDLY
# patients with NASH [2] = settings: cited from earlier work
# patients with NASH [3] = settings: cited from earlier work; remark: listed apart in the source
# patients with NASH [4] = assay: Meta-analysis of 17 NASH clinical trials: change from baseline in LFTs and biomarkers by study arm, composite outcome; type: in vivo, human; settings: 17 NASH clinical trials
# Description: Meta-regressions of NASH clinical trials were performed to examine associations between biomarker and histological changes within treatment groups, and to additionally examine associations between treatment effects on biomarkers and on liver histology. Trials that met the following criteria were included: • Randomized controlled clinical trial • Paired biopsies performed at baseline and follow-up, scored using the NASH CRN system.
# • Published results at baseline, follow-up, or changes from baseline for any the following liver injury markers or biomarkers: alanine aminotransferase (ALT), aspartate aminotransferase (AST), alkaline phosphatase, hemoglobin A1c (HbA1c), gamma-glutamyltransferase (GGT), insulin, cytokeratin-18 (CK-18), or Enhanced Liver Fibrosis (ELF) score. Variables selected were based on variables whose change was commonly reported in multiple studies. • Changes in histological scores for ballooning, inflammation, steatosis, and fibrosis, or the pre-determined endpoints of NASH resolution without worsening fibrosis or improvement in fibrosis with no worsening of NASH.
# All results from a search of PubMed for the keywords (“nonalcoholic steatohepatitis” or “non-alcoholic steatohepatitis”) and (“clinical trial” or “randomized”) and filtered for “Clinical Trial” were reviewed. EudraCT and ClinicalTrials.gov were searched for the keyword “nonalcoholic steatohepatitis” with results further filtered for phase 2 or 3, interventional, terminated or completed trials. These three sources returned 265 (PubMed), 153 (ClinicalTrials.gov), and 56 (EudraCT) results, which were each individually reviewed for inclusion in the analysis. Data extracted by one analyst from each source that included means and SDs at baseline, end of study, and changes from baseline to end of study for continuous variables were verified and corrected by a second analyst. Where SDs were not available, any provided estimate of variation was used to derive the SD where possible; a plot-digitizer program was used where data were presented in figures only. Data for dichotomous endpoints were extracted as the number of subjects with the event and corresponding sample size.
# Random effects weighted least squares meta-regressions with inverse variance weighting were used to examine the association of changes in ALT, AST, CK-18, HbA1c, fasting insulin levels, ELF, alkaline phosphatase and GGT with biopsy outcomes. CK-18[M30] was measured in all studies except EMMINENCE where CK-18[M651 was reported. These associations were assessed at an individual cohort level (within treatment group), as well as based on the treatment effect. Percent change from baseline in liver injury makers and biomarkers was used as the predictor when examining the associations in the individual cohorts with outcomes while the treatment ratio, the ratio of active to placebo with respect to the relative changes from baseline, was used as the predictor when assessing the association with the treatment effect on outcomes. Standardized mean changes (mean/SD) or standardized mean treatment differences (mean difference/pooled SD) were used for continuous outcomes and Freeman-Tukey double arcsine transformed proportions or log odds ratios were used for dichotomous outcomes. Meta-regression results were computed using the metafor package available in R. P-values <0.05 were considered statistically significant.
# From the meta-regression results, ranks for the association with responses and treatment effects for each histologic outcome (changes in ballooning, inflammation, steatosis, and fibrosis; NASH resolution without worsening of fibrosis, and fibrosis improvement without worsening of NAS) were assigned across seven biomarkers (AST, GGT, HbA1c, insulin, CK-18, ELF, and alkaline phosphatase) for both the slope and the mediator p-value (ranks 1-7, with 7 assigned to the biomarker with the greatest slope or lowest p-value). An average rank across all outcomes was then assigned to each biomarker. […]
# [5] = ENCORE-HF trial, Emricasan 5 mg
# [6] = ENCORE-HF trial, Emricasan 50 mg
# [7] = CENTAUR, 150 mg, follow-up 12 months
# [8] = LEUSCHNER trial, UDCA 23-28 mg/kg/day
# [9] = LEUSCHNER, 23-28 mg/kg/day, follow-up 18 months
# [10] = ARREST, 400 mg, follow-up 12 months
# [11] = ARREST, 600 mg, follow-up 12 months
# [12] = GEORGESCU trial, Valsartan 80 mg
# [13] = GEORGESCU, 80 mg, follow-up 20 months
smiles,measurement,setting,value
COc1cccc(C(O)COc2ccc(CC3SC(=O)NC3=O)cc2)c1 (stereo not shown) [primary metabolite of MSDC-0602],share of the combined exposure,[1],more than 90%
same,binding to the MPC,MPC,"maintain, and in some cases improve"
same,reduction in binding affinity for PPARγ compared to pioglitazone,PPARγ,more than fifty-fold
C[C@H](NC(=O)C(=O)Nc1ccccc1C(C)(C)C)C(=O)N[C@@H](CC(=O)O)C(=O)COc1c(F)c(F)cc(F)c1F [Emricasan],"Change from Baseline, mean: Ballooning",patients with NASH [2]; [5],0.04
same,"Change from Baseline, mean: Fibrosis",patients with NASH [2]; [5],0.41
same,"Change from Baseline, mean: Inflammation",patients with NASH [2]; [5],−0.11
same,"Change from Baseline, mean: Steatosis",patients with NASH [2]; [5],−0.20
same,Fibrosis Improvement,patients with NASH [2]; [5],12/107
same,NASH Resolution,patients with NASH [2]; [5],4/107
same,"Change from Baseline, mean: Ballooning",patients with NASH [2]; [6],0.13
same,"Change from Baseline, mean: Fibrosis",patients with NASH [2]; [6],0.36
same,"Change from Baseline, mean: Inflammation",patients with NASH [2]; [6],0.09
same,"Change from Baseline, mean: Steatosis",patients with NASH [2]; [6],−0.27
same,Fibrosis Improvement,patients with NASH [2]; [6],13/106
same,NASH Resolution,patients with NASH [2]; [6],7/106
same,% Change from Baseline ALT,"patients with NASH [3]; ENCORE-HF, 5 mg",−35.28%
same,% Change from Baseline AST,"patients with NASH [3]; ENCORE-HF, 5 mg",−18.47%
same,% Change from Baseline CK-18,"patients with NASH [3]; ENCORE-HF, 5 mg",−36.86%
same,% Change from Baseline ALT,"patients with NASH [3]; ENCORE-HF, 50 mg",−45.17%
same,% Change from Baseline AST,"patients with NASH [3]; ENCORE-HF, 50 mg",−19.83%
same,% Change from Baseline CK-18,"patients with NASH [3]; ENCORE-HF, 50 mg",−45.07%
CCCCOCCOc1ccc(-c2ccc3c(c2)/C=C(/C(=O)Nc2ccc([S@@+]([O-])Cc4cncn4CCC)cc2)CCCN3CC(C)C)cc1 [Cenicriviroc],Fibrosis Improvement,"patients with NASH [2]; CENTAUR trial, Cenicriviroc 150 mg",29/145
same,% Change from Baseline ALT,patients with NASH [3]; [7],11.23%
same,% Change from Baseline AST,patients with NASH [3]; [7],11.67%
same,% Change from Baseline Alk Phos,patients with NASH [3]; [7],1.24%
same,% Change from Baseline CK-18,patients with NASH [3]; [7],−12.34%
same,% Change from Baseline GGT,patients with NASH [3]; [7],2.68%
same,% Change from Baseline HbA1c,patients with NASH [3]; [7],−0.75%
same,% Change from Baseline Insulin,patients with NASH [3]; [7],2.14%
C[C@H](CCC(=O)O)[C@H]1CC[C@H]2[C@@H]3[C@@H](O)C[C@@H]4C[C@H](O)CC[C@]4(C)[C@H]3CC[C@]12C [UDCA],"Change from Baseline, mean: Ballooning",patients with NASH [2]; [8],−0.16
same,"Change from Baseline, mean: Inflammation",patients with NASH [2]; [8],−0.51
same,"Change from Baseline, mean: Steatosis",patients with NASH [2]; [8],−0.55
same,% Change from Baseline ALT,patients with NASH [3]; [9],−40.55%
same,% Change from Baseline AST,patients with NASH [3]; [9],−27.95%
same,% Change from Baseline Alk Phos,patients with NASH [3]; [9],−6.376%
same,% Change from Baseline GGT,patients with NASH [3]; [9],−59.94%
"CCCCCCCCCCCCCCCCCCCC(=O)N[C@H]1CC[C@@]2(C)[C@@H](C1)C[C@@H](O)[C@@H]1[C@@H]2C[C@H](O)[C@]2(C)[C@@H]([C@H](C)CCC(=O)O)CC[C@@H]12 [Aramachol, reference compound]",Fibrosis Improvement,"patients with NASH [2]; ARREST trial, Aramchol 400 mg",17/80
same,NASH Resolution,"patients with NASH [2]; ARREST trial, Aramchol 400 mg",6/80
same,Fibrosis Improvement,"patients with NASH [2]; ARREST trial, Aramchol 600 mg",23/78
same,NASH Resolution,"patients with NASH [2]; ARREST trial, Aramchol 600 mg",13/78
same,"treatment effect on the surrogate endpoint (weighted average of changes in AST, CK-18, HbA1c)",patients with NASH [4],largest treatment effects
same,% Change from Baseline ALT,patients with NASH [3]; [10],−18.06%
same,% Change from Baseline HbA1c,patients with NASH [3]; [10],−0.62%
same,% Change from Baseline ALT,patients with NASH [3]; [11],−32.02%
same,% Change from Baseline HbA1c,patients with NASH [3]; [11],−1.79%
CCCCC(=O)N(Cc1ccc(-c2ccccc2-c2nnn[nH]2)cc1)[C@H](C(=O)O)C(C)C [Valsartan],"Change from Baseline, mean: Ballooning",patients with NASH [2]; [12],−0.11
same,"Change from Baseline, mean: Fibrosis",patients with NASH [2]; [12],−0.31
same,"Change from Baseline, mean: Inflammation",patients with NASH [2]; [12],0.08
same,"Change from Baseline, mean: Steatosis",patients with NASH [2]; [12],−0.34
same,% Change from Baseline ALT,patients with NASH [3]; [13],−23.22%
same,% Change from Baseline AST,patients with NASH [3]; [13],−18.82%
same,% Change from Baseline GGT,patients with NASH [3]; [13],−20.60%
